These results are taken from patent US6495491B1, “Substituted cyanophenyl uracils” (Bayer Aktiengesellschaft, priority 1995, dated 2002).

Common to all, as to format: in vivo
Test [1] relates to Matricaria. The experiment in a line: Post-emergence test, Matricaria. To be noted: application rates between 30 and 500 g/ha, after three weeks. The procedure:
(§1) Solvent: 5 parts by weight of acetone
(§2) Emulsifier: 1 part by weight of alkylaryl polyglycol ether
(§3) To produce a suitable preparation of active compound, 1 part by weight of active compound is mixed with the stated amount of solvent, the stated amount of emulsifier is added and the concentrate is diluted with water to the desired concentration.
(§4) Test plants which have a height of 5-15 cm are sprayed with the preparation of the active compound in such a way as to apply the particular amounts of active compound desired per unit area. The concentration of the spray liquor is chosen so that the particular desired amounts of active compound are applied in 2000 l of water/ha.
(§5) After three weeks, the degree of damage to the plants is rated in % damage by comparison with the development of the untreated control.
(§6) 0%=no effect (like untreated control)

The subject of test [2] is Abutilon. The experiment in a line: Pre-emergence test, Abutilon. To be noted: application rates between 8 and 125 g/ha, after three weeks. As for the experimental part:
as §1, §2, §3
(§7) Seeds of the test plants are sown in normal soil. After 24 hours, the soil is watered or sprayed with the preparation of the active compound. It is advantageous to keep the amount of water per unit area constant. The concentration of the active compound in the preparation is immaterial, only the amount of active compound applied per unit area matters.
as §5, §6

In a further test the test system is wheat. Description: Pre-emergence test, crop tolerance wheat. To be noted: application rates between 8 and 125 g/ha, after three weeks. As for the experimental part:
as §1, §2, §3, §7, §5, §6

Test [3] concerns Matricaria. Description: Pre-emergence test, Matricaria. To be noted: application rates between 8 and 125 g/ha, after three weeks. As for the experimental part: as §1, §2, §3, §7, §5, §6
For test [4], the system named is Chenopodium. Description: Post-emergence test, Chenopodium. To be noted: application rates between 30 and 500 g/ha, after three weeks. The procedure:
as §1, §2, §3, §4, §5, §6

Test [5] concerns Abutilon. The experiment in a line: Post-emergence test, Abutilon. To be noted: application rates between 30 and 500 g/ha, after three weeks. As for the experimental part: as §1, §2, §3, §4, §5, §6
Test [6] has as its system Chenopodium. Description: Pre-emergence test, Chenopodium. To be noted: application rates between 8 and 125 g/ha, after three weeks. As for the experimental part: as §1, §2, §3, §7, §5, §6

On to `COc1cc(-n2c(=O)cc(C(F)(F)F)n(C)c2=O)c(F)cc1C#N` [Example 2, 1-(4-cyano-2-fluoro-5-methoxy-phenyl)-3,6-dihydro-2,6-dioxo-3-methyl-4-trifluoromethyl-1(2H)-pyrimidine], for which the “degree of damage to the plants, % damage” value worked out at 100% in the test on Matricaria [1]; 100% in the test on Abutilon [2]; 100 %/o in the test with Matricaria [3]; 100% in the test with Chenopodium [4]; 100% in the test with Abutilon [5]; 100 %/o with Chenopodium [6]. Also, the “degree of damage to the plants, % damage (tolerance by crops)” value in the test on wheat is 0%.
